The source of these data is PubChem BioAssay AID1996.

≈ marks a conversion by molar mass, not a printed value. Residues, ends and D or L forms follow the SMILES beside them.

For the series the following is noted: buffer; pH 7.4; 200.0 µM.
For the compound `COc1ccc(-c2nc(CCl)cs2)cc1OC.Cl`, the kinetic solubility amounted to 41.8 µg/mL.

Take `Cc1ccc(C#CC[N+]2(C)CCCCC2)cc1.[Br-]`: the kinetic solubility is greater than 46.2 µg/mL. With `O=C(NN1CCOCC1)c1ccccc1Br` the figure was greater than 42.8 µg/mL; with `CCN(CC)CCNc1ccc(CO)c2sc3ccccc3c(=O)c12`, greater than 53.5 µg/mL; with `Cc1ccc(C)c(S(=O)(=O)N2CCNCC2)c1`, greater than 38.2 µg/mL. With `CN(C)/C=C1\Cc2ccccc2C1=O` the figure was greater than 28.1 µg/mL. The value for `CC(=O)c1csc(COc2ccccc2)n1` was 27.3 µg/mL (≈ 117 µM). Consider `O=C(COC(=O)CNS(=O)(=O)c1cc(C(F)(F)F)ccc1Cl)NC1CC1`, for which the kinetic solubility was greater than 62.2 µg/mL.

Regarding `COc1ccc(N(Cc2cc3ccc(C)cc3[nH]c2=O)C(=O)C2CCCO2)cc1` (centres undefined), the solubility (kinetic) worked out at 10.1 µg/mL (≈ 25.7 µM). The value for `CN(C)c1ccc(-n2cccc2)cc1` was 1.1 µg/mL (≈ 5.91 µM). `C[n+]1ccc(C(=O)NCc2ccccc2)cc1.[I-]` displayed a solubility (kinetic) of 39.3 µg/mL. In turn, `Cc1ccc(S(=O)(=O)N2CCN(C)CC2)c2nsnc12` came in with a kinetic solubility greater than 46.9 µg/mL.

As for `Cc1ccsc1CNC(=O)c1c(-c2ccccc2)noc1C`, the solubility (kinetic) was 22.2 µg/mL (≈ 71.1 µM). With `COc1ccc(-c2nc(C=O)cs2)cc1` the figure was 26.2 µg/mL (≈ 119 µM); with `COc1cc(OC)c(C(=O)OC(C)C(=O)NCc2ccc3c(c2)OCO3)cc1OC` (centres undefined), greater than 62.6 µg/mL. The value for `NC(=O)c1ccc(NC(=O)Cc2cccs2)cc1` was 32.9 µg/mL (≈ 126 µM); that for `COc1cc(C2NC(=S)NC(c3ccccc3)=C2C(C)=O)ccc1O` (centres undefined) was 43.8 µg/mL (≈ 124 µM). With `Cc1nc2ccc(NC(=S)N3CCCC3)cc2nc1C` the figure was 41.7 µg/mL (≈ 146 µM); with `O=C1C=C(N2CCCCCC2)C2(CCCCC2)O1`, 37.1 µg/mL (≈ 149 µM). Turning to `Cc1ccc(C(=O)C[n+]2cccc3cc(C)ccc32)cc1.[Br-]`, the solubility (kinetic) amounted to 43.8 µg/mL. With `CC1(C)Cc2nc(NC3CCCCC3)c(C#N)cc2CO1`, the kinetic solubility stood at 1.7 µg/mL (≈ 5.96 µM). With `Cc1cc(-c2ccccc2)nc(SC(C(=O)O)c2ccccc2)n1` (centres undefined) the figure was 48.1 µg/mL (≈ 143 µM).

With `CC1CC1C(=O)Nc1nc2ccc(Cl)cc2s1` (centres undefined), the solubility (kinetic) came out at 0.6 µg/mL (≈ 2.25 µM). The compound `COCn1c(C(O)c2ccccc2)cc2ccccc21` (centres undefined) showed a solubility (kinetic) of 38.9 µg/mL (≈ 146 µM). `C=CCNc1nc(N)c([N+](=O)[O-])c(NC2CCCCC2)n1` showed a solubility (kinetic) of 0.7 µg/mL (≈ 2.39 µM).

As to `COc1ccc(-c2nc(=S)c3c(n2Cc2cccnc2)CC(C)(C)OC3)cc1`, the solubility (kinetic) was greater than 59 µg/mL. With `c1ccc2c3c(c(CN4CCCC4)cc2c1)COC3` the figure was greater than 38 µg/mL; with `CC1CCc2c(sc(NC(=O)c3ccco3)c2C(=O)O)C1` (centres undefined), greater than 45.8 µg/mL. With `O=C(CNC(=O)[C@@H]1Cc2ccccc2CN1)NC1CCCCC1` the figure was greater than 47.3 µg/mL; with `CCC(=O)Nc1nc(NCc2ccccc2OC)n(-c2ccccc2)n1`, greater than 52.7 µg/mL.

Compound `O=C1c2cccnc2C(=O)N1CNc1ccc(Cl)cc1` returned a solubility (kinetic) of 34.5 µg/mL (≈ 120 µM). As for `COc1cccc(OC)c1C(=O)NCCc1ccccc1`, the solubility (kinetic) was greater than 42.8 µg/mL. With `COc1ccc(C2(NC(C)=O)CCN(Cc3cccnc3)CC2)cc1` the figure was 40.9 µg/mL (≈ 120 µM); with `CCC(=O)c1ccc2c(c1)N(CCCN(C)C)c1ccccc1S2.Cl`, greater than 56.5 µg/mL. `CCOC(=O)c1sc(NC(=O)c2sc(C)nc2C)nc1C` displayed a solubility (kinetic) of 8.7 µg/mL (≈ 26.7 µM). The value for `CC(=O)NC(Cc1ccccc1)C(=O)NC(Cc1ccccc1)C(=O)O` (stereo not drawn) (Ac-Phe-Phe-OH; configuration not given here) was 52.4 µg/mL (≈ 148 µM); that for `O=CN1CCN(S(=O)(=O)c2ccc(Cl)c(C(=O)O)c2)CC1` was greater than 49.9 µg/mL.

Compound `COCC1CCN(Cc2nc(-c3ccc(OC)cc3)no2)CC1` showed a solubility (kinetic) of 41 µg/mL (≈ 129 µM). With `CN(Cc1ccccc1)S(=O)(=O)c1ccc(NC(=O)C2CCCCC2C(=O)O)cc1` (centres undefined) the figure was greater than 64.6 µg/mL; with `CCOc1ccc(NC(=O)N(CCN(C)C)C(C)c2cccnc2)cc1` (centres undefined), greater than 53.5 µg/mL; with `Clc1ccc(Cl)c(-c2nc(-c3ccncc3)no2)c1`, less than 0.2 µg/mL. On to `CCN(c1ccccc1)c1cc2ccccc2c(=O)[nH]1`, for which the solubility (kinetic) stood at 23.9 µg/mL (≈ 90.4 µM). With `Cc1ccc2nc(C(F)C(F)(F)F)[nH]c2c1` (centres undefined) the figure was greater than 34.8 µg/mL. With `CCC(=O)N(Cc1cc(=O)[nH]c2ccccc12)c1ccccc1C` the figure was 36.3 µg/mL (≈ 113 µM); with `Oc1ccc2oc3c(c2c1C=NCc1ccncc1)CCCC3`, 16.9 µg/mL (≈ 55.2 µM); with `Cl.O=C(OCCN1CCCCC1)C1(c2ccccc2)CCCC1`, greater than 50.7 µg/mL. The value for `O=[N+]([O-])c1ccccc1Oc1ncccc1[N+](=O)[O-]` was 27.3 µg/mL (≈ 105 µM). Compound `Cc1ccsc1C(=O)N1CCc2ccccc2C1` gave a kinetic solubility greater than 38.6 µg/mL.

The compound `CCCC[n+]1c(C)sc2cc(OC)ccc21.[I-]` yielded a solubility (kinetic) of 31.9 µg/mL. With `COC(=O)c1ccc(OCC(=O)NCCC2=CCCCC2)c(OC)c1` the figure was greater than 52.1 µg/mL; with `CN=C(N)NC(=O)Nc1c(C)cccc1C.Cl`, greater than 38.5 µg/mL. The value for `CCn1c(C)c(C)c2cc(C(=O)N3CCCC3)ccc21` was greater than 40.6 µg/mL.

The compound `Cn1c(=O)n(Cc2ccc(Br)cc2)c2ccccc21` came in with a kinetic solubility of 25.7 µg/mL (≈ 81 µM). The value for `COc1ccc(/C=C/C(=O)N2CCCC2)cc1OC` was greater than 39.2 µg/mL; that for `O=C(COc1ccccc1F)Nc1ccc2c(c1)CCC2` was 4 µg/mL (≈ 14 µM). With `CC(NC(=O)Nc1cccc(F)c1)c1ccc2c(c1)OCO2` (centres undefined) the figure was 2.1 µg/mL (≈ 6.95 µM); with `CC(=O)Nc1cccc(C(=O)OC(C)C(=O)N2CCc3ccccc32)c1` (centres undefined), 1.3 µg/mL (≈ 3.69 µM); with `O=C(CS(=O)(=O)c1ccccc1)Nc1ncc([N+](=O)[O-])s1`, greater than 49.1 µg/mL. As for `O=c1c2ccccc2nc2n1C(CSc1ccc(F)cc1)CS2` (centres undefined), the solubility (kinetic) was greater than 51.7 µg/mL. Compound `Cc1c(C(=O)OCC(=O)NCC2CCCO2)oc2ccccc12` (centres undefined) returned a kinetic solubility greater than 47.6 µg/mL. The value for `Cc1ccc(N(CC(=O)NC2CCCC2)C(=O)c2ccc(C)s2)cc1` was 49.2 µg/mL (≈ 138 µM); that for `CC(C)C(NC(=O)c1ccc(Cl)cc1Cl)C(=O)N1CCN(S(=O)(=O)c2ccccc2)CC1` (centres undefined) was 2 µg/mL (≈ 4.01 µM); that for `Cn1c(C(O)c2ccc(Br)cc2)nc(Cl)c1Cl` (centres undefined) was 13.9 µg/mL (≈ 41.4 µM). `COc1ccc(NC(=O)Cc2ccc(C)c(C)c2)cc1S(=O)(=O)N1CCCCC1` showed a solubility (kinetic) of 12.8 µg/mL (≈ 30.7 µM). With `O=c1cc(NCCc2ccccc2)c2ccccc2o1` the figure was 1.1 µg/mL (≈ 4.15 µM); with `O=C(O)C1CCN(S(=O)(=O)c2cccs2)CC1`, greater than 41.3 µg/mL.

On to `Cc1cc(NC(=O)CN(C)S(=O)(=O)c2cccc(Cl)c2)no1`, for which the kinetic solubility stood at 10.5 µg/mL (≈ 30.5 µM). The value for `CCc1nccn1Cc1cc(C=O)ccc1OC.Cl` was greater than 42.1 µg/mL; that for `O=C(Nc1ccc(Oc2cccnc2)nc1)c1ccc(C(F)(F)F)cc1` was 10.3 µg/mL (≈ 28.7 µM); that for `CCN(CC)S(=O)(=O)c1ccc2c(c1)NC(=O)C1CCCN21` (centres undefined) was 46.6 µg/mL (≈ 144 µM). With `O=C(Cc1ccc(Cl)cc1)Nc1cc(Cl)ccn1` the figure was 3.5 µg/mL (≈ 12.4 µM); with `CSc1cc(CS(=O)(=O)c2ccccc2)nc(-c2ccccc2)n1`, less than 0.4 µg/mL; with `CNC(=O)CCN(Cc1ccco1)S(=O)(=O)c1ccc(OC)c(OC)c1`, 56.2 µg/mL (≈ 147 µM). Consider `CCn1nc(C)c(/C=N/NC(=O)Cn2cncn2)c1C`, for which the solubility (kinetic) was greater than 41.3 µg/mL.
